Laboratory results reported in article PMC3467072 (Nucleic Acids Research, 2012).

Test system: Rv3066–IR1
Type: binding, Mycobacterium tuberculosis
Conditions: 1 µM ethidium versus no ethidium

With CC[n+]1c(-c2ccccc2)c2cc(N)ccc2c2ccc(N)cc21 [ethidium, ethidium bromide] the “Weakening of the binding affinity between Rv3066 and IR1” value was 2.4 times.
